This is an account of results in patent US11236122B2, “Triterpene amine derivatives” (DFH THERAPEUTICS, priority 2018, dated 2022).

One assay concerns pNL4-3 SP1-V7A. As to the kind of experiment: CA-SP1 accumulation assay, SP1-V7A derivative. In kind it is cell-based, HIV-1. The note with it: HeLa or 293T cells; for % CA-SP1 Accumulation 100 nM SP1 V7A: 100 nM compound; for % CA-SP1 Accumulation 10 nM SP1 V7A: 10 nM compound. The protocol: (§1) Cell culture, plasmids and transfections. The MT-4 T-cell line was maintained in RPMI-1640 medium supplemented with 10% (vol/vol) fetal bovine serum (FBS), 2 mM glutamine, 100 U/mL penicillin and 100 μg/mL streptomycin at 37° C. in a humidified 5% CO2 atmosphere. HeLa and 293T cells were maintained in Dulbecco's modified Eagle's medium (DMEM) supplemented with 5% (vol/vol) FBS, 2 mM glutamine, 100 U/mL penicillin and 100 μg/mL streptomycin. Molecular clones used in this study were WT pNL4-3 and the derivative encoding a Val-to-Ala mutation at SP1 residue 7, referred to as SP1-V7A. The MT-4 T-cell line was transfected the DEAE/dextran procedure; HeLa and 293T cells were transfected with linear polyethylenimine (L-PEI) or Lipofectamine 2000 (Invitrogen) as recommended by the supplier.
(§2) CA-SP1 accumulation assay. For CA-SP1 accumulation assays, HeLa or 293T cells were transfected with WT pNL4-3 or the SP1-V7A derivative. At 24 h post-transfection, cells were starved in Met/Cys-free medium for 30 min and metabolically labeled with [^35S]Met/Cys-Pro-mix (Amersham) for 2-3 h. Maturation inhibitors were maintained in the cultures throughout the transfection and labeling period. Viruses were collected by ultracentrifugation at 99,000×g for 45-60 min. Virus pellets were resuspended in Triton X-100 lysis buffer [300 mM NaCl, 50 mM Tris-HCl (pH 7.5), 0.5% Triton X-100, 10 mM iodoacetamide, and protease inhibitor cocktail tablets (Roche)]. CA and CA-SP1 proteins were separated on 13.5-15% polyacrylamide gels by SDS-polyacrylamide gel electrophoresis, exposed to a phosphorimager plate (Fuji) and quantified by Quantity One software (Bio-Rad).

Another assay has as its system WT pNL4-3. In words: CA-SP1 accumulation assay, WT NL4-3. In kind it is cell-based, HIV-1. The note with it: HeLa or 293T cells; for % CA-SP1 Accumulation 100 nM NL4-3: 100 nM compound; for % CA-SP1 Accumulation 10 nM NL4-3: 10 nM compound. The protocol:
as §1, §2

Where a name gives a salt, the structure may show the parent alone.

Regarding `CN1CCN(CCCNCC[C@]23CC[C@@H](C4(C)CC4)[C@@H]2[C@H]2CC[C@@H]4[C@@]5(C)CC[C@H](OC(=O)CC(C)(C)C(=O)O)C(C)(C)[C@@H]5CC[C@@]4(C)[C@]2(C)CC3)CC1` [Compound 51i, (3β)-17-[2-[[3-(4-Methylpiperazin-1-yl)propyl]amino]ethyl]-20,29-methano-28-norlupan-3-ol, 3-(1-Hydrogen 2,2-Dimethylbutanedioate)], the “% CA-SP1 Accumulation 100 nM SP1 V7A” value in the assay on pNL4-3 SP1-V7A was determined as 22.0%. Moreover, in the assay with WT pNL4-3, the “% CA-SP1 Accumulation 100 nM NL4-3” value is 71.9%.
As for `C=C(C)[C@@H]1CC[C@]2(CNCCN3CCN(Cc4ccccc4)CC3)CC[C@]3(C)[C@H](CC[C@@H]4[C@@]5(C)CC[C@H](OC(=O)CC(C)(C)C(=O)O)C(C)(C)[C@@H]5CC[C@]43C)[C@@H]12` [Compound 51w, (3β)-28-[[2-[4-(Phenylmethyl)piperazin-1-yl]ethyl]amino]lup-20(29)-en-3-ol, 3-(1-Hydrogen 2,2-Dimethylbutanedioate) Sesquisulfate], in the assay on pNL4-3 SP1-V7A, the “% CA-SP1 Accumulation 10 nM SP1 V7A” value came to 9.6% and the “% CA-SP1 Accumulation 100 nM SP1 V7A” value was determined as 21.6%. Further, in the assay with WT pNL4-3, the “% CA-SP1 Accumulation 10 nM NL4-3” value was determined as 16.3% and the “% CA-SP1 Accumulation 100 nM NL4-3” value is reported as 50.1%.
The corresponding values for `C=C(C)[C@@H]1CC[C@]2(CNCCCN3CCCC3)CC[C@]3(C)[C@H](CC[C@@H]4[C@@]5(C)CC[C@H](OC(=O)CC(C)(C)C(=O)O)C(C)(C)[C@@H]5CC[C@]43C)[C@@H]12` [Compound 51v, (3β)-28-[[3-(1-Pyrrolidinyl)propyl]amino]lup-20(29)-en-3-ol, 3-(1-Hydrogen 2,2-Dimethylbutanedioate) Sulfate] are 10.3%, 26.9%, 21.9% and 57.2%.
In the case of `C=C(C)[C@@H]1CC[C@]2(CCNCCCN3CCCC3)CC[C@]3(C)[C@H](CC[C@@H]4[C@@]5(C)CC[C@H](OC(=O)CC(C)(C)C(=O)O)C(C)(C)[C@@H]5CC[C@]43C)[C@@H]12` [Compound 51z, (3β)-17-[2-[[3-(1-Pyrrolidinyl)propyl]amino]ethyl]-28-norlup-20(29)-en-3-ol, 3-(1-Hydrogen 2,2-Dimethylbutanedioate) Sulfate], in the assay with pNL4-3 SP1-V7A, the “% CA-SP1 Accumulation 10 nM SP1 V7A” value came out at 7.5% and the “% CA-SP1 Accumulation 100 nM SP1 V7A” value worked out at 10.5%. For the same molecule, in the assay on WT pNL4-3, the “% CA-SP1 Accumulation 10 nM NL4-3” value is on record as 9.5% and the “% CA-SP1 Accumulation 100 nM NL4-3” value is 19.9%.
Turning to `C=C(C)[C@@H]1CC[C@]2(CCNCCN3CCC(S(C)(=O)=O)CC3)CC[C@]3(C)[C@H](CC[C@@H]4[C@@]5(C)CC[C@H](OC(=O)CC(C)(C)C(=O)O)C(C)(C)[C@@H]5CC[C@]43C)[C@@H]12` [Compound 51gg, (3β)-17-[2-[[2-[4-(Methylsulfonyl)piperidin-1-yl]ethyl]amino]ethyl]-28-norlup-20(29)-en-3-ol, 3-(1-Hydrogen 2,2-Dimethylbutanedioate)], the “% CA-SP1 Accumulation 10 nM SP1 V7A” value in the assay on pNL4-3 SP1-V7A came out at 30.9%. For the same molecule, in the assay with WT pNL4-3, the “% CA-SP1 Accumulation 10 nM NL4-3” value stood at 57.7%.
Regarding `C=C(C)[C@@H]1CC[C@]2(CCNCCN3CCN(CC4CCCCC4)CC3)CC[C@]3(C)[C@H](CC[C@@H]4[C@@]5(C)CC[C@H](OC(=O)CC(C)(C)C(=O)O)C(C)(C)[C@@H]5CC[C@]43C)[C@@H]12` [Compound 51s, (3β)-17-[2-[[2-[4-(Cyclohexylmethyl)piperazin-1-yl]ethyl]amino]ethyl]-28-norlup-20(29)-en-3-ol, 3-(1-Hydrogen 2,2-Dimethylbutanedioate)], the “% CA-SP1 Accumulation 10 nM SP1 V7A” value with pNL4-3 SP1-V7A was determined as 14.5%. Moreover, in the assay with WT pNL4-3, the “% CA-SP1 Accumulation 10 nM NL4-3” value is on record as 48.7%.
For the molecule `C=C(C)[C@@H]1CC[C@]2(CNCCN3CCN(S(C)(=O)=O)CC3)CC[C@]3(C)[C@H](CC[C@@H]4[C@@]5(C)CC[C@H](OC(=O)CC(C)(C)C(=O)O)C(C)(C)[C@@H]5CC[C@]43C)[C@@H]12` [Compound 51x, (3β)-28-[[2-[4-(Methylsulfonyl)piperazin-1-yl]ethyl]amino]lup-20(29)-en-3-ol, 3-(1-Hydrogen 2,2-Dimethylbutanedioate) Sulfate], in the assay on pNL4-3 SP1-V7A, the “% CA-SP1 Accumulation 10 nM SP1 V7A” value was determined as 31.0% and the “% CA-SP1 Accumulation 100 nM SP1 V7A” value was determined as 26.9%. Further, in the assay with WT pNL4-3, the “% CA-SP1 Accumulation 10 nM NL4-3” value worked out at 56.6% and the “% CA-SP1 Accumulation 100 nM NL4-3” value was found to be 74.3%.
The corresponding values for `C=C(C)[C@@H]1CC[C@]2(CCCNCCN3CCN(Cc4ccccc4)CC3)CC[C@]3(C)[C@H](CC[C@@H]4[C@@]5(C)CC[C@H](OC(=O)CC(C)(C)C(=O)O)C(C)(C)[C@@H]5CC[C@]43C)[C@@H]12` [Compound 51bb, (3β)-17-[3-[[2-[4-(Phenylmethyl)piperazin-1-yl]ethyl]amino]propyl]-28-norlup-20(29)-en-3-ol, 3-(1-Hydrogen 2,2-Dimethylbutanedioate) Sesquisulfate] are 4.8%, 3.7%, 5.8% and 8.4%.
Consider `C=C(C)[C@@H]1CC[C@]2(CCNCCN3CCN(Cc4cccc5ccccc45)CC3)CC[C@]3(C)[C@H](CC[C@@H]4[C@@]5(C)CC[C@H](OC(=O)CC(C)(C)C(=O)O)C(C)(C)[C@@H]5CC[C@]43C)[C@@H]12` [Compound 51q, (3β)-17-[2-[[2-[4-(1-Naphthalenylmethyl)piperazin-1-yl]ethyl]amino]ethyl]-28-norlup-20(29)-en-3-ol, 3-(1-Hydrogen 2,2-Dimethylbutanedioate)], for which the “% CA-SP1 Accumulation 10 nM SP1 V7A” value in the assay on pNL4-3 SP1-V7A came to 11.6%. The “% CA-SP1 Accumulation 10 nM NL4-3” value in the assay with WT pNL4-3 was determined as 26.8%.
`C=C(C)[C@@H]1CC[C@]2(CCCNCCN3CCN(S(C)(=O)=O)CC3)CC[C@]3(C)[C@H](CC[C@@H]4[C@@]5(C)CC[C@H](OC(=O)CC(C)(C)C(=O)O)C(C)(C)[C@@H]5CC[C@]43C)[C@@H]12` [Compound 51cc, (3β)-17-[3-[[2-[4-(Methylsulfonyl)piperazin-1-yl]ethyl]amino]propyl]-28-norlup-20(29)-en-3-ol, 3-(1-Hydrogen 2,2-Dimethylbutanedioate) Sesquisulfate]: in the assay with pNL4-3 SP1-V7A, the “% CA-SP1 Accumulation 10 nM SP1 V7A” value is 12.5% and the “% CA-SP1 Accumulation 100 nM SP1 V7A” value is on record as 19.3%. Besides, in the assay on WT pNL4-3, the “% CA-SP1 Accumulation 10 nM NL4-3” value is listed as 26.0% and the “% CA-SP1 Accumulation 100 nM NL4-3” value was 58.4%.
As for `C=C(C)[C@@H]1CC[C@]2(CCNCCN3CCN(Cc4ccc5ccccc5n4)CC3)CC[C@]3(C)[C@H](CC[C@@H]4[C@@]5(C)CC[C@H](OC(=O)CC(C)(C)C(=O)O)C(C)(C)[C@@H]5CC[C@]43C)[C@@H]12` [Compound 51t, (3β)-17-[2-[[2-[4-(2-Quinolinylmethyl)piperazin-1-yl]ethyl]amino]ethyl]-28-norlup-20(29)-en-3-ol, 3-(1-Hydrogen 2,2-Dimethylbutanedioate)], in the assay on pNL4-3 SP1-V7A, the “% CA-SP1 Accumulation 10 nM SP1 V7A” value is reported as 18.6%. Further, the “% CA-SP1 Accumulation 10 nM NL4-3” value in the assay on WT pNL4-3 is 56.1%.
